Series [1] concerns AMPK and GLUT4 in NIH-3T3-L1 adipocytes. As to the kind of experiment: AMPK activation and GLUT4 in plasma membrane of L1 adipocytes (Western blot). It counts as cell-based, Mice. The conditions noted are these: 10 mM, 3 hours. Here is the method: . 2 days in culture media supplemented with insulin 1 μg/mL; and 6 days in culture media. […]. Similar quantities of each extract were analyzed using Western blot (SDS-PAGE and electrotransfer), with the indicated antibodies and chemiluminescence (ECL Prime, GE Healthcare). FIGS. 70B-C show pictures of L1 adipocyte cultures treated as in FIG. 70A and exposed to fractioning for protein extraction from plasma membrane by a procedure described above (Nishiumi & Ashida. Biosci Biotechnol Biochem. 2007; 71:2343-6). Briefly, cells were washed with PBS and collected in solution A (Tris 50 mM, pH 8.0, DTT 0.5 mM, 0.1% Nonidet P-40, PMSF 1 mM, leupeptin 5 μg/mL, aprotinin 5 μg/mL, NaF 10 mM, Na3VO4 1 mM) and lysed manually with a Dounce homogenizer (20 pestle movements). Homogenized solutions were centrifuged (1000×g, 10 minutes, 4° C.), cell precipitates were dispersed in solution A, without Nonidet P-40, stored in ice for 10 minutes, occasionally stirred, and centrifuged again (1000×g, 10 minutes, 4° C.). […]. Supernatants were stored at −80° C. until analysis. Equivalent quantities of demembrane extracts were analyzed by Western blot with anti-GLUT4 (Abcam) antibodies. […]

Another series concerns insulin receptor. As to the kind of experiment: Insulin receptor β subunit in plasma membrane of C2C12 myotubes. The series is classed as cell-based, Mice. The conditions noted are these: 10 mM, 3 hours (FIG. 76), listed as SLN10. How it is done: FIG. 76. Metformin lysinate promotes the accumulation of insulin receptor β subunit in plasma membrane. C2C12 cells were differentiated for 5 days in DMEM supplemented with 2% horse serum; then, cultures were treated for 3 hours with SLN1 or SLN10 10 mM, or with vehicle (control) at 37° C. Similar quantities of each extract were analyzed by Western blot with insulin receptor subunit (IRP) specific antibodies.

Another series has as its system RAW264.7 macrophages. As to the kind of experiment: GPBP and pro-IL-1β expression in stimulated RAW264.7 macrophages. It counts as cell-based. Here is the method: FIG. 87. […] RAW264.7 macrophages cultured in DMEM, supplemented with 10% FBS and antibiotics, were treated with the indicated concentrations of either SLN1, SLN10 for 2 hours, after which LPS (1 μg/mL) was added to cultures. After incubating for 16 hours, the relative expression quantification (RQ) for GPBP was analyzed by RT-qPCR, using HPRT-1 as a normalizer and non-stimulated cells (cells) as a reference point.
FIG. 88. […] RAW264.7 macrophages were treated as shown in FIG. 87 and analyzed by flow cytometry, using for sample processing the Cytofix/Cytoperm (BD) kit, according to the manufacturer's instructions, as well as specific antibodies against GPBP (N27) and pro-IL-1β, conjugated with FITC and phycoerythrin (PE), correspondingly. The intensity of fluorescence (IF) emission median value is shown in arbitrary units (a.u.) for each of the series. Non-treated cells were used as a reference point and their corresponding isotype controls were carried out. The median is usually used in fluorescence quantitative studies to minimize the influence of extreme values that may distort the real mean value. Isotype controls were carried out to eliminate background, caused by nonspecific fluorescence; nonspecific antibodies from the same isotype of those used to detect GPBP and pro-IL-1β were used. […]

Series [2] in a line: Metformin association with lysine in aqueous solution (1H NMR titration). The series is classed as physicochemical. The conditions noted are these: 1×PBS, pH 7.5, WINEQNMR2. Here is the method: Specifically, 500 μL of a 10 mM lysine solution in buffer […] were introduced in an NMR tube, and the pH was adjusted to 7.5; moreover, […] of deuterated methanol was added, and the NMR proton spectrum was recorded (^1H). […] Increasing amounts of the metformin dissolution were added to the amino acid dissolution, and the ^1H NMR spectrum was recorded after each addition until reaching 20 equivalents.
The alpha proton signal of lysine (triplet to 3.76 ppm, FIG. 100) first shifted to lower […] and then to higher values. […] The complexation constant was calculated to be 828±42 (FIG. 101).

Results on one substance are retold here after patent US11510886B2, “Metformin amino acid compounds and methods of using the same” (Laboratorios Silancs S.A. DE C.V., priority 2016, dated 2022).

As for metformin lysinate, in series [1], the AMPK activation result was “activates AMPK” and the “GLUT4 accumulation in the plasma membrane” value is recorded as “induces a GLUT4 accumulation in the plasma membrane”. The “accumulation of insulin receptor in the plasma membrane” value in the series on insulin receptor is reported as “promotes the accumulation of insulin receptor in the plasma membrane”. The “GPBP secretion induced by LPS and IC” value with RAW264.7 macrophages (FIG. 90) is recorded as “less ability to reduce GPBP secretion”. Also, in the series on RAW264.7 macrophages (LPS or LPS and IFN-γ, flow cytometry (FIGS. 88, 89)), the “induced expression of GPBP” value is given as “more efficiently inhibited by SLN10”. For the same substance, the complexation constant in series [2] is 828±42.
